Laboratory results as given in ChEMBL document CHEMBL1201862, “PubChem BioAssay data set” (2004).
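1) Cells in 96-well plates. 2) Compound, 48 h, 5 concentrations. 3) Linear interpolation between surrounding doses. 4) Unreached endpoint = highest concentration. Here, GI50 denotes the concentration required for 50% inhibition of growth.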 Activity calls are given as the source filed them. No stated cut-off is given here; in the data, active = GI50 up to about 1.1 µM and inactive = higher.

Columns and labels:
Experiment in all cases: NCI anticancer screen, dose series, 48 h
OVCAR-4 = system: OVCAR-4
Malme-3M = system: Malme-3M
KM12 = system: KM12
A549 = system: A549
DU-145 = system: DU-145
NCI-H460 = system: NCI-H460
OVCAR-3 = system: OVCAR-3
SK-OV-3 = system: SK-OV-3
SK-MEL-2 = system: SK-MEL-2
MCF7 = system: MCF7
HCT-15 = system: HCT-15
MDA-MB-435 = system: MDA-MB-435
HCC 2998 = system: HCC 2998
MDA-N = system: MDA-N
EKVX = system: EKVX
HCT-116 = system: HCT-116
SNB-75 = system: SNB-75
NCI-H226 = system: NCI-H226
SN12C = system: SN12C
NCI-H23 = system: NCI-H23
786-0 = system: 786-0
Hs-578T = system: Hs-578T
NCI/ADR-RES = system: NCI/ADR-RES
IGROV-1 = system: IGROV-1
NCI-H522 = system: NCI-H522
HOP-62 = system: HOP-62
UO-31 = system: UO-31
TK-10 = system: TK-10
SR = system: SR
COLO 205 = system: COLO 205
MDA-MB-231 = system: MDA-MB-231
HL-60 = system: HL-60
BT-549 = system: BT-549
MOLT-4 = system: MOLT-4
HT-29 = system: HT-29
RPMI-8226 = system: RPMI-8226
U-251 = system: U-251
T47D = system: T47D
SK-MEL-28 = system: SK-MEL-28
OVCAR-8 = system: OVCAR-8
RXF 393 = system: RXF 393
OVCAR-5 = system: OVCAR-5
UACC-257 = system: UACC-257
A498 = system: A498
SF-295 = system: SF-295
SW-620 = system: SW-620
CCRF-CEM = system: CCRF-CEM
SNB-19 = system: SNB-19
UACC-62 = system: UACC-62
PC-3 = system: PC-3
SF-539 = system: SF-539
SF-268 = system: SF-268
K562 = system: K562
CAKI-1 = system: CAKI-1
LOX IMVI = system: LOX IMVI
HOP-92 = system: HOP-92
ACHN = system: ACHN
SK-MEL-5 = system: SK-MEL-5
M14 = system: M14

O=C(NCCCCl)c1c(O)c2ccccc2[nH]c1=O
GI50 (OVCAR-4): > 100 µM (inactive) | GI50 (Malme-3M): > 100 µM (inactive) | GI50 (KM12): > 100 µM (inactive) | GI50 (A549): > 100 µM (inactive) | GI50 (DU-145): > 100 µM (inactive) | GI50 (NCI-H460): > 100 µM (inactive) | GI50 (OVCAR-3): > 100 µM (inactive) | GI50 (SK-OV-3): > 80.5 µM (inactive) | GI50 (SK-MEL-2): > 94 µM (inactive) | GI50 (MCF7): > 91.8 µM (inactive) | GI50 (HCT-15): > 100 µM | GI50 (MDA-MB-435): > 100 µM (inactive) | GI50 (HCC 2998): > 76.2 µM (inactive) | GI50 (MDA-N): > 100 µM (inactive) | GI50 (EKVX): 50.6 µM (inactive) | GI50 (HCT-116): > 100 µM (inactive) | GI50 (SNB-75): > 54.5 µM (inactive) | GI50 (NCI-H226): > 100 µM (inactive) | GI50 (SN12C): > 100 µM (inactive) | GI50 (NCI-H23): > 87.3 µM (inactive) | GI50 (786-0): > 61 µM (inactive) | GI50 (Hs-578T): > 56.8 µM (inactive) | GI50 (NCI/ADR-RES): > 71 µM (inactive) | GI50 (IGROV-1): > 100 µM (inactive) | GI50 (NCI-H522): > 65.5 µM (inactive) | GI50 (HOP-62): > 50.6 µM (inactive) | GI50 (UO-31): > 100 µM (inactive) | GI50 (TK-10): > 100 µM (inactive) | GI50 (SR): > 100 µM (inactive) | GI50 (COLO 205): > 100 µM (inactive) | GI50 (MDA-MB-231): > 100 µM (inactive) | GI50 (HL-60): > 100 µM (inactive) | GI50 (BT-549): > 78 µM (inactive) | GI50 (MOLT-4): > 100 µM (inactive) | GI50 (HT-29): > 100 µM (inactive) | GI50 (RPMI-8226): > 100 µM (inactive) | GI50 (U-251): > 100 µM (inactive) | GI50 (T47D): > 73.3 µM (inactive) | GI50 (SK-MEL-28): > 100 µM (inactive) | GI50 (OVCAR-8): > 100 µM (inactive) | GI50 (RXF 393): > 41.3 µM (inactive) | GI50 (OVCAR-5): > 100 µM (inactive) | GI50 (UACC-257): > 100 µM (inactive) | GI50 (A498): 32.4 µM (inactive) | GI50 (SF-295): > 48.9 µM (inactive) | GI50 (SW-620): > 100 µM (inactive) | GI50 (CCRF-CEM): > 100 µM (inactive) | GI50 (SNB-19): > 100 µM (inactive) | GI50 (UACC-62): > 50.9 µM (inactive) | GI50 (PC-3): > 100 µM (inactive) | GI50 (SF-539): > 54 µM (inactive) | GI50 (SF-268): > 72.1 µM (inactive) | GI50 (K562): > 100 µM (inactive) | GI50 (CAKI-1): > 100 µM (inactive) | GI50 (LOX IMVI): > 100 µM (inactive) | GI50 (HOP-92): > 43.3 µM (inactive) | GI50 (ACHN): > 100 µM (inactive) | GI50 (SK-MEL-5): > 100 µM (inactive) | GI50 (M14): > 100 µM (inactive)

O=C1N[C@H]2C(=O)c3c(Cl)sc(Cl)c3[C@H]2O1
GI50 (OVCAR-4): 2.15 µM (inactive) | GI50 (Malme-3M): 14.3 µM (inactive) | GI50 (KM12): 17.3 µM (inactive) | GI50 (A549): 19.5 µM (inactive) | GI50 (DU-145): 11.2 µM (inactive) | GI50 (NCI-H460): 18.1 µM (inactive) | GI50 (OVCAR-3): 1.92 µM (inactive) | GI50 (SK-OV-3): 15.5 µM (inactive) | GI50 (SK-MEL-2): 19.5 µM (inactive) | GI50 (MCF7): 16.7 µM (inactive) | GI50 (HCT-15): 3.86 µM | GI50 (MDA-MB-435): 4.81 µM (inactive) | GI50 (HCC 2998): 1.94 µM (inactive) | GI50 (MDA-N): 5.06 µM (inactive) | GI50 (EKVX): 2 µM (inactive) | GI50 (HCT-116): 3.66 µM (inactive) | GI50 (SNB-75): 15.5 µM (inactive) | GI50 (NCI-H226): 32.1 µM (inactive) | GI50 (SN12C): 10.9 µM (inactive) | GI50 (NCI-H23): 5.94 µM (inactive) | GI50 (786-0): 14.2 µM (inactive) | GI50 (Hs-578T): 23.2 µM (inactive) | GI50 (NCI/ADR-RES): 20.1 µM (inactive) | GI50 (IGROV-1): 4.69 µM (inactive) | GI50 (NCI-H522): 3.13 µM (inactive) | GI50 (HOP-62): 16.5 µM (inactive) | GI50 (UO-31): 1.71 µM (inactive) | GI50 (TK-10): 29.2 µM (inactive) | GI50 (SR): 2.56 µM (inactive) | GI50 (COLO 205): 6.52 µM (inactive) | GI50 (MDA-MB-231): 14.1 µM (inactive) | GI50 (HL-60): 2.18 µM (inactive) | GI50 (BT-549): 23.3 µM (inactive) | GI50 (MOLT-4): 3.12 µM (inactive) | GI50 (HT-29): 2.46 µM (inactive) | GI50 (RPMI-8226): 13.3 µM (inactive) | GI50 (U-251): 3.32 µM (inactive) | GI50 (T47D): 11.6 µM (inactive) | GI50 (SK-MEL-28): 6.64 µM (inactive) | GI50 (OVCAR-8): 2.79 µM (inactive) | GI50 (RXF 393): 3.42 µM (inactive) | GI50 (OVCAR-5): 19.4 µM (inactive) | GI50 (UACC-257): 6.7 µM (inactive) | GI50 (A498): 24.1 µM (inactive) | GI50 (SF-295): 16.9 µM (inactive) | GI50 (SW-620): 2.18 µM (inactive) | GI50 (CCRF-CEM): 0.774 µM (active) | GI50 (SNB-19): 15.2 µM (inactive) | GI50 (UACC-62): 13.3 µM (inactive) | GI50 (PC-3): 14.2 µM (inactive) | GI50 (SF-539): 5.85 µM (inactive) | GI50 (SF-268): 4.8 µM (inactive) | GI50 (K562): 1.99 µM (inactive) | GI50 (CAKI-1): 4.79 µM (inactive) | GI50 (LOX IMVI): 2.7 µM (inactive) | GI50 (HOP-92): 7.45 µM (inactive) | GI50 (ACHN): 7.6 µM (inactive) | GI50 (SK-MEL-5): 18.1 µM (inactive) | GI50 (M14): 6.28 µM (inactive)
